US20250381168A1, “VLA4 INHIBITORS AND USES THEREOF” (Washington University, priority 2022, published 2025)
Entries after “also recorded” stand apart in the source; their conditions may differ. Like-named read-outs stand apart in the source and are kept apart here. Blank lines part the entries; values can stand above or below the compound they belong to.

Experiments:
[1] = test system: hematopoietic stem/progenitor cells (HSPCs); assay: HSPC mobilization into peripheral blood, colony forming unit (CFU) assay; conditions: mice
[2] = target: VLA-4 (a4b1) (Homo sapiens (Human), UniProt P05556+P13612); assay: sVCAM flow cytometry cell-based assay (inhibition of soluble VCAM-1 binding to G2 ALL cells);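 further: compounds at 0.1 to 1000 nM preincubated 30 min with G2 ALL cells, then VCAM/Fc added for 30 min, bound VCAM-1 detected by PE secondary antibody, percent binding cells by flow cytometry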
VLA-4 (a4b1), sequence (P13612 34-1032): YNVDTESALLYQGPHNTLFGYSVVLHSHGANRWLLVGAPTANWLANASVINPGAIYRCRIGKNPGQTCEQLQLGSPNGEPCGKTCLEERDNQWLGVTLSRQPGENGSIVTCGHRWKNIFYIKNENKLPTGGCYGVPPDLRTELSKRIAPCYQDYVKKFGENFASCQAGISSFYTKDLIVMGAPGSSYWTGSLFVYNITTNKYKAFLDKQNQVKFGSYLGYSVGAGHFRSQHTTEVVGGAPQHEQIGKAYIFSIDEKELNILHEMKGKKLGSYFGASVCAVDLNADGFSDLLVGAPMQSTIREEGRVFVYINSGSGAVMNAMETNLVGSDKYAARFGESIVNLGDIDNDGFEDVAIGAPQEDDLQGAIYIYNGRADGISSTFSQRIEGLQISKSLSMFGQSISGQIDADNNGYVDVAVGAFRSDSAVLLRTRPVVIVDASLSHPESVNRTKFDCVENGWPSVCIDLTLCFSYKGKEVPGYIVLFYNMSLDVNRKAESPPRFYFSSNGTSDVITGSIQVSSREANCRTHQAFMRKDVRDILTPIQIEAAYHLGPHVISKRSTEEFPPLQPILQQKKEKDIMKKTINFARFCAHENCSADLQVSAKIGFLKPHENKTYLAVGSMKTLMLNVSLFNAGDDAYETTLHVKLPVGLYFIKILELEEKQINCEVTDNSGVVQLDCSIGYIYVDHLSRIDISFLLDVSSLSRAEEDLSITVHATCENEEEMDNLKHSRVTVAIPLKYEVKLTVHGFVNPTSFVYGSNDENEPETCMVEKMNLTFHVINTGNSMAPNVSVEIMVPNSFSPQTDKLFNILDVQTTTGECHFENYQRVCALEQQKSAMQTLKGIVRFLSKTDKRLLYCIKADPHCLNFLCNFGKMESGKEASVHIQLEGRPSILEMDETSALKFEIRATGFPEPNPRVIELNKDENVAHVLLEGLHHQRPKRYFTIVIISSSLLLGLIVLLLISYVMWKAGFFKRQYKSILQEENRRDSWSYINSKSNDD
VLA-4 (a4b1), sequence (P05556 21-798): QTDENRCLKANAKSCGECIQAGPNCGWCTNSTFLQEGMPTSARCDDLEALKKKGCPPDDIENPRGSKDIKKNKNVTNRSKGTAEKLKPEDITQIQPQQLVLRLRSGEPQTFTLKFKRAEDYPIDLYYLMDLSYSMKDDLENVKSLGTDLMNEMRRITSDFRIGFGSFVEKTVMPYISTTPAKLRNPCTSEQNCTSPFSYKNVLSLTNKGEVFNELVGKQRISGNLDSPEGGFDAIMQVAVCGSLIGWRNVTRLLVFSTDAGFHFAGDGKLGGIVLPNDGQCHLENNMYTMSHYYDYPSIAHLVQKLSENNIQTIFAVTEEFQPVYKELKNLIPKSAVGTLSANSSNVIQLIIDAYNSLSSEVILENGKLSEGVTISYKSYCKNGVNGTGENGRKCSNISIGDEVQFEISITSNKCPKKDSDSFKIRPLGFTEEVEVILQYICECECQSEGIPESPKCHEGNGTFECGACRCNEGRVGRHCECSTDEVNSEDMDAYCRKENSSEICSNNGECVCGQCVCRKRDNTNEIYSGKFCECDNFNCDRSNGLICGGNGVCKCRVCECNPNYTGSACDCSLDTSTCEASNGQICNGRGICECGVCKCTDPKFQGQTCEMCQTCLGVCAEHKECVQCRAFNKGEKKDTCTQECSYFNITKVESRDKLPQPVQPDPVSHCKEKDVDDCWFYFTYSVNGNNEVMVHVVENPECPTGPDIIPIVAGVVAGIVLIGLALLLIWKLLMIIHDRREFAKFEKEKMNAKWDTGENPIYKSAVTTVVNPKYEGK

[3] = inhibition of sVCAM-1 binding to human G2 ALL cells (TABLE 3), read-out: SVCAM-1, IC50
[4] = single dose, peripheral blood, 2 hr post dose (TABLE 9)
[5] = single dose, peripheral blood, 4 hr post dose (TABLE 9)
[6] = single dose, peripheral blood, 6 hr post dose (TABLE 9)
[7] = as listed in TABLE 9, read-out: sVCAM IC50

Structure (SMILES): c1cc(CN2CCCNCCNCCCNCC2)ccc1CN1CCCNCCNCCCNCC1 [AMD3100, plerixafor]
No. CFU (×10^3)/mL ± SD, 2 hr ([1]; single dose alone or in combination with AMD3100 (5 mg/kg s.c.), peripheral blood, 2 hr (TABLE 14)): 3.42 ± 1.42 (×10^3)/mL | No. CFU (×10^3)/mL ± SD, 3 hr ([1]; single dose alone or in combination with AMD3100 (5 mg/kg s.c.), peripheral blood, 3 hr (TABLE 14)): 5.08 ± 2.32 (×10^3)/mL | No. CFU (×10^3)/mL ± SD, 5 hr ([1]; single dose alone or in combination with AMD3100 (5 mg/kg s.c.), peripheral blood, 5 hr (TABLE 14)): 2.38 ± 0.73 (×10^3)/mL

Structure (SMILES): c1cc(CN2CCCNCCNCCCNCC2)ccc1CN1CCCNCCNCCCNCC1 [Plerixafor, plerixafor]
No. CFU (x10^3)/mL ± SD, 4 hr ([1]; single dose alone or in combination with Plerixafor (5 mg/kg s.c.), peripheral blood, 4 hr (TABLE 15)): 1.25 ± 0.30 (x10^3)/mL | No. CFU (x10^3)/mL ± SD, 6 hr ([1]; single dose alone or in combination with Plerixafor (5 mg/kg s.c.), peripheral blood, 6 hr (TABLE 15)): 0.28 ± 0.12 (x10^3)/mL | No. CFU (x10^3)/mL ± SD, 24 hr ([1]; single dose alone or in combination with Plerixafor (5 mg/kg s.c.), peripheral blood, 24 hr (TABLE 15)): 0.22 ± 0.08 (x10^3)/mL

Structure (SMILES): COCCOCCOCCOCc1cc(OC)c(-c2ccc(C[C@H](NC(=O)c3c(Cl)cc(C(=O)O)cc3Cl)C(=O)O)cc2)c(OC)c1 [Example C4]
time to which HSPC mobilization is extended after a single dose [1]: ≤ 2 h | No. CFU (×10^3)/mL ± SD, 2 hr ([1]; alone or in combination with Plerixafor and tGroβ, peripheral blood, 2 hr (TABLE 17)): 2.91 ± 0.83 (×10^3)/mL | No. CFU (×10^3)/mL ± SD, 4 hr ([1]; alone or in combination with Plerixafor and tGroβ, peripheral blood, 4 hr (TABLE 17)): 0.53 ± 0.16 (×10^3)/mL | No. CFU (×10^3)/mL ± SD, 6 hr ([1]; alone or in combination with Plerixafor and tGroβ, peripheral blood, 6 hr (TABLE 17)): 0.28 ± 0.09 (×10^3)/mL | No. CFU (×10^3)/mL ± SD, 0.25 hr ([1]; single s.c. injection, peripheral blood, 0.25 hr post dose (TABLE 5)): 4.73 ± 1.31 (×10^3)/mL | No. CFU (×10^3)/mL ± SD, 2 hr ([1]; single s.c. injection, peripheral blood, 2 hr post dose (TABLE 5)): 1.47 ± 0.51 (×10^3)/mL | No. CFU (×10^3)/mL ± SD, 4 hr ([1]; single s.c. injection, peripheral blood, 4 hr post dose (TABLE 5)): 0.49 ± 0.12 (×10^3)/mL | IC50 ([2]; as listed in TABLE 5, read-out: sVCAM IC50): 1690 pM | IC50 ([2]; as listed in TABLE 17, read-out: sVCAM IC50): 1690 pM | IC50 [2, 3]: 1690 pM

Continued, in another order:

IC50 ([2]; as listed in TABLE 8, read-out: sVCAM IC50): 579 pM | IC50 [2, 3]: 579 pM
Structure (SMILES): COCCOCCOCCOCCOCCOCCOCCOCCOCCOCCOCCOCCOCCOCCOCCOCCOCCOCCOCCOCCOCCOCCOCCOCCn1cc(COCc2cc(OC)c(-c3ccc(C[C@H](NC(=O)[C@@H]4CCCN4S(=O)(=O)c4cc(Cl)cc(Cl)c4)C(=O)O)cc3)c(OC)c2)nn1 [Example C9, (S)-3-(4′-(((1-(2,5,8,11,14,17,20,23,26,29,32,35,38,41,44,47,50,53,56,59,62,65,68,71-tetracosaoxatriheptacontan-73-yl)-1H-1,2,3-triazol-4-yl)methoxy)methyl)-2′,6′-dimethoxy-[1,1′-biphenyl]-4-yl)-2-((S)-1-((3,5-dichlorophenyl)sulfonyl)pyrrolidine-2-carboxamido)propanoic Acid]
HSPC mobilization, result in words ([1]; single dose): returning to baseline by 4 hours; also recorded: inferior mobilization at 4 hours compared to Example 3 | No. CFU (×10^3)/mL ± SD, 0.25 hr ([1]; single dose, peripheral blood, 0.25 hr post dose (TABLE 8)): 3.72 ± 1.18 (×10^3)/mL | No. CFU (×10^3)/mL ± SD, 2 hr ([1]; single dose, peripheral blood, 2 hr post dose (TABLE 8)): 3.09 ± 1.06 (×10^3)/mL | No. CFU (×10^3)/mL ± SD, 4 hr ([1]; single dose, peripheral blood, 4 hr post dose (TABLE 8)): 0.57 ± 0.28 (×10^3)/mL

IC50 [2, 7]: 673 pM | IC50 [2, 3]: 673 pM
Structure (SMILES): COCCOCCOCCOCCOCCOCCOCCOCCOCCOCCOCCOCCOCc1cc(OC)c(-c2ccc(C[C@H](NC(=O)[C@@H]3CCCN3S(=O)(=O)c3cc(Cl)cc(Cl)c3)C(=O)O)cc2)c(OC)c1 [Example C13, (S)-2-((S)-1-((3,5-dichlorophenyl)sulfonyl)pyrrolidine-2-carboxamido)-3-(2′,6′-dimethoxy-4′-(2,5,8,11,14,17,20,23,26,29,32,35,38-tridecaoxanonatriacontyl)-[1,1′-biphenyl]-4-yl)propanoic Acid]
HSPC mobilization, result in words ([1]; single dose): returning to baseline by 4 hours and clearly at baseline by 6 hours | No. CFU (×10^3)/mL ± SD, 2 hr [1, 4]: 2.01 ± 0.75 (×10^3)/mL | No. CFU (×10^3)/mL ± SD, 4 hr [1, 5]: 0.41 ± 0.19 (×10^3)/mL | No. CFU (×10^3)/mL ± SD, 6 hr [1, 6]: 0.10 ± 0.04 (×10^3)/mL

IC50 [2, 7]: 702 pM | IC50 ([2]; as listed in TABLE 10, read-out: sVCAM IC50): 702 pM | IC50 [2, 3]: 702 pM
Structure (SMILES): COCCOCCOCCOCCOCCOCCOCCOCCOCCOCCOCCOCCOCCOCCOCCOCCOCc1cc(OC)c(-c2ccc(C[C@H](NC(=O)[C@@H]3CCCN3S(=O)(=O)c3cc(Cl)cc(Cl)c3)C(=O)O)cc2)c(OC)c1 [Example C14, (S)-3-(4′-(2,5,8,11,14,17,20,23,26,29,32,35,38,41,44,47,50-heptadecaoxahenpentacontyl)-2′,6′-dimethoxy-[1,1′-biphenyl]-4-yl)-2-((S)-1-((3,5-dichlorophenyl)sulfonyl)pyrrolidine-2-carboxamido)propanoic Acid]
HSPC mobilization, result in words ([1]; single dose): returning to baseline by 4 hours and clearly at baseline by 6 hours; also recorded: returning to baseline at 4 hours and affords no mobilization effects at 6 hours | No. CFU (×10^3)/mL ± SD, 2 hr [1, 4]: 3.17 ± 1.17 (×10^3)/mL | No. CFU (×10^3)/mL ± SD, 2 hr ([1]; single dose, peripheral blood, 2 hr post dose (TABLE 10)): 3.40 ± 1.42 (×10^3)/mL | No. CFU (×10^3)/mL ± SD, 4 hr [1, 5]: 0.50 ± 0.25 (×10^3)/mL | No. CFU (×10^3)/mL ± SD, 4 hr ([1]; single dose, peripheral blood, 4 hr post dose (TABLE 10)): 0.82 ± 0.47 (×10^3)/mL | No. CFU (×10^3)/mL ± SD, 6 hr [1, 6]: 0.08 ± 0.11 (×10^3)/mL | No. CFU (×10^3)/mL ± SD, 6 hr ([1]; single dose, peripheral blood, 6 hr post dose (TABLE 10)): 0.25 ± 0.16 (×10^3)/mL
